According to US10596223B2, “JNK inhibitor molecules for treatment of various diseases” (Xigen Inflammation Ltd., priority 2011, dated 2020):
Square brackets hold non-standard residues; d marks the D form. Peptide text beside a SMILES is read from it.

Experiments:
[1] = tested on: Primary Rat Whole Blood Cells; assay: Cytokine release in rat whole blood (LPS or PMA+ionomycin, 4 h); assay type: cell-based; conditions: 10 μM inhibitor, three activator concentrations
Experimental: Given are the results for the control, 1 μM of SEQ ID NO: 172, 3 μM of SEQ ID NO: 172, and 10 μM of SEQ ID NO: 172 at different levels of LPS (ng/ml).
FIG. 17 Dose dependent inhibition of IL-2 release in rat whole blood stimulated with PMA+ionomycin. JNK inhibitor with SEQ ID NO: 172 was added at three different concentrations, namely 1, 3 and 10 μM 1 h before stimulation with PMA+ionomycin. Three doses of activators were added (25/500 ng/mL, 50/750 ng/mL and 50/1000 ng/mL) for 4 h. IL-2 release was assessed in supernatant.
Whole blood is collected from anesthetized rat or human healthy volunteers using a venipuncture connected to a pre-labeled vacuum tube containing sodium citrate. Tubes are gently mixed by inversion 7-8 times; and are then kept at RT until stimulation. JNK inhibitor of SEQ ID NO: 172_is prepared […] concentrated in PBS, and 30 μl/well of mix is added into 96-well plate. Whole blood is diluted by 1:2 in PBS and 120 μl of diluted blood is added in each well where either PBS alone or JNK inhibitor of SEQ ID NO: 172 has been previously added. Whole blood is incubated at 37° C.; 85 rpm (Stuart Orbital incubator S1500) for 60 min. […] Cytokine (IL-6, IL-2, IFNγ and TNFα) were then measured using standard Elisa kits (e.g. from R&D Systems: DuoSet Elisas; or from BD Biosciences: BD Opteia Set Elisa). Results are expressed as pg/ml of supernatant of the measured cytokine. […]

[2] = Stability (half-life) in human serum, intact peptide by UPLC-MS; assay type: in vitro ADME; conditions: human serum (50% in FIG. 5; 10 and 50% in PBS), 0.1 mM peptide
Experimental: FIG. 5: Stability of JNK inhibitors with SEQ ID NOs: 172, 196 and 197 in 50% human serum. The JNK inhibitor with SEQ ID NO: 196 was totally degraded into amino acids residues within 6 hours (A). The JNK inhibitor with SEQ ID NO: 172 was completely degraded only after 14 days (B). The JNK inhibitor with SEQ ID NO: 197 was stable at least up to 30 days (B).
The JNK inhibitors with the sequence of SEQ ID NOs: 196, 197, and 172 (0.1 mM final concentration) were digested in human serum (10 and 50% in PBS 1×). The experiment was performed as described by Tugyi et al. (Proc Natl Acad Sci USA, 2005, 413-418). The remaining intact peptide was quantified by UPLC-MS. Stability was assessed for SEQ ID NOs: 196, 197, and 172 identically but in two separate assays. While the JNK inhibitor with SEQ ID NO: 196 was totally degraded into amino acids residues within 6 hours, the JNK inhibitor with SEQ ID NO: 172 was completely degraded only after 14 days. The JNK inhibitor with SEQ ID NO: 197 was still stable after 30 days.

[3] = tested on: THP1-PMA-differentiated macrophages; assay: LPS-induced cytokine and chemokine release in PMA differentiated THP1 macrophages (ELISA); assay type: cell-based, human
Experimental: In the following the procedure will be set forth describing how the released amount of several human cytokines after ligand induced secretion from human cells (Blood, WBC, PBMC, purified primary lymphocytes, cell lines, . . . ) was measured.
The technique used is a Sandwich ELISA, which allows measuring the amount of antigen between two layers of antibodies (i.e. capture and detection antibody). The antigen to be measured must contain at least two antigenic sites capable of binding to antibody, since at least two antibodies act in the sandwich. Either monoclonal or polyclonal antibodies can be used as the capture and detection antibodies in Sandwich ELISA systems. Monoclonal antibodies recognize a single epitope that allows fine detection and quantification of small differences in antigen. A polyclonal is often used as the capture antibody to pull down as much of the antigen as possible.
The method may be used to determine the effect of the JNK inhibitors of the present invention in vitro/cell culture. At non toxic doses, compound efficacy is indicated by the decrease of the cytokine levels (the variation of optical density (absorbance at 450 nm)) as compared to non-treated samples and is monitored by ELISA. Results are express in ng/ml.
In the following the procedure will be set forth describing how cytokine production from human PMA differentiated THP1 cells challenged by LPS for 6 h was induced in order to test the ability of JNK inhibitors of the present invention, in particular of a JNK inhibitor with SEQ ID NO: 172, to reduce stimulation-induced cytokine release. THP1 cells were stimulated ex-vivo by different ligands for the readout of cytokine release. At non toxic doses, JNK inhibitor efficacy is indicated by the decrease of the cytokine levels as compared to non-treated samples and is monitored by ELISA. The toxicity of the compound are evaluated by the reduction of a tretazolium salt (MTS) to formazan, giving a purple colour.
a. Material • Cell Line: THP-1 (Ref TIB-202, ATCC, lot 57731475) • Culture medium, reagent and plates • RPMI (Ref 21875-091, Invitrogen) complemented with: • 10% FBS (Ref A15-151, PAA): decomplemented at 56° C., 30 min. • 10 mM Hepes (Ref H0887, Sigma) • 50 μM β-mercaptoethanol (Ref 63690, Fluka: stock at 14.3M): add 560 μl of 50 mM aliquots in PBS stocked at −20° C.) • 1 mM Sodium Pyruvate (Ref 58636, Sigma) • Penicilline (100 unit/ml)/Streptomycine (100 μg/ml) (Ref P4333, Sigma) • The RPMI medium is then filtrated with a […] (Ref SCGPU05RE, Millipore). • PBS 10× (Ref 70011, Invitrogen): diluted to 1× with sterile H2O • DMSO: Ref 41444, Fluka • PMA (phorbol 12-myristate 13-acetate, Ref P1585, Sigma, concentration 1 mM=616.8 ug/ml in DMSO at −20° C.). […]

[4] = THP1 differentiated macrophages, LPS 6 h (10 ng/ml)

Q: What does the source list for `CC(C)C[C@H](NC(=O)[C@H](CC(N)=O)NC(=O)[C@H](CC(C)C)NC(=O)[C@@H](NC(=O)[C@@H](C)NC(=O)[C@@H]1CCCN1C(=O)[C@H](CCCNC(=N)N)NC(=O)[C@@H](CCCCN)NC(=O)[C@@H]1CCCN1C(=O)[C@H](CCCNC(=N)N)NC(=O)[C@@H](CCCNC(=N)N)NC(=O)[C@H](CCCNC(=N)N)NC(=O)[C@H](CCCNC(=N)N)NC(=O)[C@H](CCC(N)=O)NC(=O)[C@@H](CCCNC(=N)N)NC(=O)[C@H](CCCNC(=N)N)NC(=O)[C@H](CCCCN)NC(=O)[C@H](CCCCN)NC(=O)[C@H](N)CCCNC(=N)N)[C@@H](C)O)C(=O)N[C@H](Cc1ccccc1)C(N)=O` [SEQ ID NO: 172, rKKRrQRRrRPkRPaTLNLf] (H-[dR]KKR[dR]QRR[dR]RP[dK]RP[dA]TLNL[dF]-NH2; N-terminus assumed)?
A: PMA-iono-induced IL-2 release [1]: did efficiently reduce PMA-iono-induced IL-2 release; completely degraded only after [2]: 14 days; LPS-induced TNFα release, potency comparison ([3]; PMA differentiated macrophages): higher potency than D-TAT-IB1 (SEQ ID NO: 197) and L-TAT-IB1 (SEQ ID NO: 196); LPS-induced IL-6 release, potency comparison ([3]; PMA differentiated macrophages, LPS 6 h): higher potency than D-TAT-IB1 (SEQ ID NO: 197) and L-TAT-IB1 (SEQ ID NO: 196); LPS-induced IL6 release, potency comparison [3, 4]: higher potency than D-TAT-IB1 (SEQ ID NO: 197), dTAT (SEQ ID NO: 45) and SP 600125; LPS-induced TNFα release, potency comparison [3, 4]: higher potency than D-TAT-IB1 (SEQ ID NO: 197), dTAT (SEQ ID NO: 4.5) and SP 600125
